Assay results taken from patent US11666589B2, “Pivarubicin and benzarubicin compositions” (Paradox Pharmaceuticals, Inc., priority 2020, dated 2023).
“And” between values parts separate entries of the source, which are not always exact repeats. Identical values can stand only once. Like-named read-outs stand apart in the source and are kept apart here.

Assays:
CEM/VLB-100 = test: Drug resistance of P-glycoprotein overexpressing CEM/VLB-100 cells; assay type: cell-based, human; settings: CEM/VLB-100 versus CCRF-CEM
Description: Pivarubicin used for TNBC studies was synthesized by Dr. John Rimoldi (Univ. of Mississippi) using the previously described protocol. Doxorubicin HCl, rottlerin and all antibodies were purchased from Sigma-Aldrich (St. Louis, Mo.). For in vitro experiments, doxorubicin and pivarubicin were dissolved in DMSO. The final maximum DMSO concentration used for in vitro drug treatments (1% for 72 hours) was not cytotoxic. IL-3-dependent 32D.3 murine myeloid cells, CCRF-CEM human lymphoblastic leukemia cells and multidrug-resistant variants (generous gift of Dr. William T. Beck, St. Jude Children's Research Hospital, Memphis, Tenn.), 293 embryonic human kidney cells and HL-60 human acute myeloid leukemia cells transfected with Bcr-Abl, Bcl-XL or empty expression vectors (generous gift of Dr. Kapil Bhalla, Univ. of Miami) were maintained as previously described. K562 human chronic myelogenous leukemia and LNCaP human prostate cancer cells were purchased from ATCC (Manassas, Va.) and maintained as described by the vendor. LNCaP/Bcl-2 cells were the generous gift of Dr. Ralph Buttyan (Columbia Univ.). Luminescent MDA-MB-231-LM2 (LM-2; metastatic lung subpopulation isolated from human TNBC MDA-MB-231 cells transduced with eIF1a-Luc2-puro lentivirus) were generously provided by Dr. Yibin Kang, Princeton Univ.) and maintained in culture as previously described. […]

[1] = Cardiotoxicity assessment (Bertazzoli Test), tumor-bearing mice; assay type: in vivo, female NSG mice; settings: for hearts with Severity 0 / hearts with Severity 0.5 / hearts with Severity 1.0: 2 i.p. doses; for hearts with Total Score 0 / hearts with Total Score 0.5 / hearts with Total Score 1.0: severity×extension
Description: Drug-mediated cardiotoxicity was assessed in both non-tumor-bearing female NSG mice administered three doses (i.p. every two weeks) of the MTD of doxorubicin, pivarubicin or the equivalent volume of solvent only and in hearts excised from tumor-bearing mice treated as described in Results section. Body weights were monitored every three days. Two weeks after final dose, mice were sacrificed, and hearts were excised immediately. Intact ventricular myocardia were fixed for a minimum of 24 h in 10% formalin phosphate buffered to pH 7.0 and then carefully sectioned into 2 to 3-mm thick slices before being dehydrated in graded ethanol and cleared in xylene prior to embedding in paraffin at 58° C. Sections (4-μm thick) were mounted on glass slides, deparaffinized in xylene, and stained in the routine fashion with Mayer's hematoxylin and eosin. Slide labels were blinded to evaluator. Myocardial lesions were evaluated by routine light microscopy and scored with regard to the severity and extent of damage:
Degree of severity (S)—0, no evidence of histological changes; 1, sarcoplasmic microvacuolization and/or inclusions (interstitial or cellular edema); 2, as in 1 plus sarcoplasmic macrovacuolization or atrophia, necrosis, fibrosis, endocardial lesions, and thrombi.
Degree of extension (E)—0, no lesions; 0.5, less than 10 single altered myocytes on the whole-heart section; 1, scattered single altered myocytes; 2, scattered small groups of altered myocytes; 3, spread small groups of altered myocytes; 4, confluent groups of altered myocytes; 5, most of cells damaged.
Total cardiotoxicity score/animal=S×E and mean total score (MTS) for each treatment group was MTS=(S×E)/number of animals.
Given the limitation of doxorubicin in the treatment of tumors due to irreversible cardiotoxicity due to the total cumulative dose of drug, it was next determined whether pivarubicin produced evidence of cardiotoxic damage at the total dose of drug administered to NSG mice that produced tumor growth inhibition. Histological evidence of ventricular damage in hearts of drug- or vehicle-treated NSG mice were assessed using the Bertazzoli Test, originally designed to assess doxorubicin-induced cardiomyocyte damage. Analyses were performed on hearts from two independent experiments: 1) hearts that were excised at dosing endpoint from tumor-bearing NSG mice receiving 2 i.p. doses of pivarubicin at 16.5 mg/kg, doxorubicin at 1.4 mg/kg then 1.6 mg/kg and an equivalent volume of vehicle alone and 2) non-tumor-bearing female NSG mice receiving 3 i.p. doses of pivarubicin at 16.5 mg/kg, doxorubicin at 1.4 mg/kg then 1.6 mg/kg×2 and an equivalent volume of vehicle alone at 2-week intervals.
Non-tumor-bearing female NSG mice at 9 weeks old were treated with either 16.5 mg/kg pivarubicin (PIV), 1.4 mg/kg (1×) and 1.6 mg/kg (2×) doxorubicin and equivalent volumes of vehicle i.p. at 2-week intervals. Tumor-bearing female NSG mouse treatment was as described for the “Cardiotoxicity Assessment method” method. At endpoint, hearts were excised and prepared for histological analysis as described above. Severity and severity×extension (total score) are defined in Materials and Methods.

SUM159 cells = test: MTT cytotoxicity, TNBC monolayer SUM159; assay type: cell-based; settings: SUM159, 48 h
Description: (§1) Based upon the ability of pivarubicin to circumvent multiple mechanisms of resistance against doxorubicin, we then examined the efficacy of pivarubicin against TNBC in comparison to doxorubicin, using the following procedure, using two basal TNBC cell lines. MDA-MB-231 cells and SUM-159 cells were maintained under adherent monolayer growth conditions. Upon reaching 50% confluency, cells were treated for 48 h with the dose range of doxorubicin or pivarubicin as indicated in FIGS. 6A and 6B. Cell viability was corrected for death observed in vehicle-only-treated cells (<1% ethanol final well concentration).

MDA-MB-231 cells = test: MTT cytotoxicity, TNBC monolayer MDA-MB-231; assay type: cell-based, human; settings: MDA-MB-231, 48 h
Description: Rottlerin treatment of cells, cell viability analysis by MTT [28] and immunoblot identification of protein expression were performed and described previously.
as §1, with “6B.” for “6B. Cell viability was corrected for death observed in vehicle-only-treated cells (<1% ethanol final well concentration).”
In the absence of specific receptor targets, the current treatment of metastatic TNBC relies on doxorubicin-based multidrug therapy, with only limited effectiveness. […] Once achieving a primary tumor volume of 150-190 mm^3, mice were randomized into three cohorts for treatment with the MTD of pivarubicin or doxorubicin, or the equivalent volume per body weight of vehicle.

| Compound | resistance (CEM/VLB-100) [fold] | hearts with Severity 0 [1] | hearts with Severity 0.5 [1] | hearts with Severity 1.0 [1] | hearts with Total Score 0 [1] | hearts with Total Score 0.5 [1] | hearts with Total Score 1.0 [1] | IC50 (SUM159 cells) [µM] | IC90 (SUM159 cells) [µM] | IC90 (MDA-MB-231 cells; Homo sapiens) [µM] | IC90 (MDA-MB-231 cells) [µM] | IC50 (SUM159 cells; MTT, read-out: IC50) [µM] | IC90 (SUM159 cells; MTT, read-out: IC90) [µM] | IC50 (MDA-MB-231 cells) [µM] | IC90 (MDA-MB-231 cells; read-out: IC90) |
| --- | --- | --- | --- | --- | --- | --- | --- | --- | --- | --- | --- | --- | --- | --- | --- |
| COc1cccc2c1C(=O)c1c(O)c3c(c(O)c1C2=O)C[C@@](O)(C(=O)CO)C[C@@H]3O[C@H]1C[C@H](N)[C@H](O)[C@H](C)O1 [Doxorubicin, reference compound] | 73 | 7/9 | 0/9 | 2/9 | 8/9 | 1/9 | 0/9 | 4 | > 20 | > 20 | 20 | – | – | – | – |
| COc1cccc2c1C(=O)c1c(O)c3c(c(O)c1C2=O)C[C@@](O)(C(=O)COC(=O)C(C)(C)C)C[C@@H]3O[C@H]1C[C@H](NCc2ccccc2)[C@H](O)[C@H](C)O1 [Pivarubicin, N-Benzyladriamycin-14-pivalate] | 3 | 9/10 | 0/10 | 1/10 | 9/10 | 0/10 | 1/10 | – | – | – | – | 1.5 | 1.7 | 2.5 | 4.5 µM and 5.1 µM |
